Source: ChEMBL document CHEMBL2074574, “The interaction and transport of beta-lactam antibiotics with the cloned rat renal organic anion transporter 1” (J Pharmacol Exp Ther, 1999)
pKi: −log10 of the molar value. Blank lines part the entries; values can stand above or below the compound they belong to.

Legend:
[1] = target: T1, Solute carrier family 22 member 6 (Rattus norvegicus, UniProt O35956); experiment: TP_TRANSPORTER: inhibition of PAH uptake (PAH: 2 uM, Amoxicillin: 2000 uM) in Xenopus laevis oocytes; format: functional, cell-based; conditions: oocyte
T1 sequence (O35956 whole entry): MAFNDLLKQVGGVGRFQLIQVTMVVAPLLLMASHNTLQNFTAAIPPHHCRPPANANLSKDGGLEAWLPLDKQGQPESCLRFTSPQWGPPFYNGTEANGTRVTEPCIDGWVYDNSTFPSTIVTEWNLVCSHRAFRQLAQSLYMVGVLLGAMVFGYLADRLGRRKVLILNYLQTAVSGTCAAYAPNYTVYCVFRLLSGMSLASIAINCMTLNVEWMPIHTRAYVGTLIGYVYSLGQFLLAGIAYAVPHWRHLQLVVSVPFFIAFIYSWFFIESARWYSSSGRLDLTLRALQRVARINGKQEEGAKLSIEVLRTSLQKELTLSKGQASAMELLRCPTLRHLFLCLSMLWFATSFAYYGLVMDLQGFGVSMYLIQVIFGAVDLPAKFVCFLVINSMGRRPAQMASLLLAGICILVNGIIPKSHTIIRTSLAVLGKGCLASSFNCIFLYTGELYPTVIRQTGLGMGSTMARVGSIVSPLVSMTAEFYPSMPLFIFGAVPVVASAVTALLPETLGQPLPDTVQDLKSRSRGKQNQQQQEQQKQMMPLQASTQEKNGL

[2] = target: T1, Solute carrier family 22 member 6; experiment: TP_TRANSPORTER: inhibition of PAH uptake (PAH: 2 uM, Cefsulodin: 2000 uM) in Xenopus laevis oocytes; format: functional, cell-based; conditions: oocyte
[3] = target: T1, Solute carrier family 22 member 6; experiment: TP_TRANSPORTER: inhibition of PAH uptake (PAH: 2 uM, Ceftazidime: 2000 uM) in Xenopus laevis oocytes; format: functional, cell-based; conditions: oocyte
[4] = target: T1, Solute carrier family 22 member 6; experiment: TP_TRANSPORTER: inhibition of PAH uptake in Xenopus laevis oocytes; format: functional, cell-based, Oocyte
[5] = target: T1, Solute carrier family 22 member 6; experiment: TP_TRANSPORTER: inhibition of PAH uptake (PAH: 2 uM, Chloramphenicol: 2000 uM) in Xenopus laevis oocytes; format: functional, cell-based; conditions: oocyte
[6] = target: T1, Solute carrier family 22 member 6; experiment: TP_TRANSPORTER: inhibition of PAH uptake (PAH: 2 uM, Cinoxacin: 2000 uM) in Xenopus laevis oocytes; format: functional, cell-based; conditions: oocyte
[7] = target: T1, Solute carrier family 22 member 6; experiment: TP_TRANSPORTER: inhibition of PAH uptake (PAH: 2 uM, Cloxacillin: 2000 uM) in Xenopus laevis oocytes; format: functional, cell-based; conditions: oocyte
[8] = target: T1, Solute carrier family 22 member 6; experiment: TP_TRANSPORTER: inhibition of PAH uptake (PAH: 2 uM, Nafcillin: 2000 uM) in Xenopus laevis oocytes; format: functional, cell-based; conditions: oocyte
[9] = target: T1, Solute carrier family 22 member 6; experiment: TP_TRANSPORTER: inhibition of PAH uptake (PAH: 2 uM, Norfloxacin: 2000 uM) in Xenopus laevis oocytes; format: functional, cell-based; conditions: oocyte
[10] = target: T1, Solute carrier family 22 member 6; experiment: TP_TRANSPORTER: inhibition of PAH uptake (PAH: 2 uM, OFLX: 2000 uM) in Xenopus laevis oocytes; format: functional, cell-based; conditions: oocyte
[11] = target: T1, Solute carrier family 22 member 6; experiment: TP_TRANSPORTER: inhibition of PAH uptake (PAH: 2 uM, Piperacillin: 2000 uM) in Xenopus laevis oocytes; format: functional, cell-based; conditions: oocyte
[12] = target: T1, Solute carrier family 22 member 6; experiment: TP_TRANSPORTER: inhibition of PAH uptake (PAH: 2 uM, Streptomycin: 2000 uM) in Xenopus laevis oocytes; format: functional, cell-based; conditions: oocyte
[13] = target: T1, Solute carrier family 22 member 6; experiment: TP_TRANSPORTER: inhibition of PAH uptake (PAH: 2 uM, Vancomycin: 2000 uM) in Xenopus laevis oocytes; format: functional, cell-based; conditions: oocyte
[14] = target: T1, Solute carrier family 22 member 6; experiment: TP_TRANSPORTER: inhibition of PAH uptake (PAH: 2 uM, Gentamicin: 2000 uM) in Xenopus laevis oocytes; format: functional, cell-based; conditions: oocyte

Compound: CC1(C)S[C@@H]2[C@H](NC(=O)[C@H](N)c3ccc(O)cc3)C(=O)N2[C@H]1C(=O)O [AMOXICILLIN]
- Activity [1]: inhibitor [(at a rough estimate) 20 % of control]

Compound: NC(=O)c1cc[n+](CC2=C(C(=O)O)N3C(=O)[C@@H](NC(=O)[C@@H](c4ccccc4)S(=O)(=O)[O-])[C@H]3SC2)cc1 [CEFSULODIN]
- Activity [2]: inhibitor [(at a rough estimate) 10 % of control]

Compound: CC(C)(O/N=C(\C(=O)N[C@@H]1C(=O)N2C(C(=O)[O-])=C(C[n+]3ccccc3)CS[C@H]12)c1csc(N)n1)C(=O)O [CEFTAZIDIME]
- Activity [3]: inhibitor [(at a rough estimate) 45 % of control]

- pKi [4]: 2.64
Compound: CC1=C(C(=O)O)N2C(=O)[C@@H](NC(=O)[C@H](N)c3ccccc3)[C@H]2SC1 [CEPHALEXIN ANHYDROUS]

Compound: O=C(N[C@H](CO)[C@H](O)c1ccc([N+](=O)[O-])cc1)C(Cl)Cl [CHLORAMPHENICOL]
- Activity [5]: inhibitor [(at a rough estimate) 75% of control]

Compound: CCn1nc(C(=O)O)c(=O)c2cc3c(cc21)OCO3 [CINOXACIN]
- Activity [6]: inhibitor [(at a rough estimate) 5 % of control]

Compound: Cc1onc(-c2ccccc2Cl)c1C(=O)N[C@@H]1C(=O)N2[C@@H]1SC(C)(C)[C@@H]2C(=O)O [CLOXACILLIN]
- Activity [7]: inhibitor [(at a rough estimate) 5 % of control]

Compound: CCOc1ccc2ccccc2c1C(=O)N[C@@H]1C(=O)N2[C@@H]1SC(C)(C)[C@@H]2C(=O)O [NAFCILLIN]
- Activity [8]: inhibitor [(at a rough estimate) <5 % of control]

- Activity [9]: is not an inhibitor [-]
Compound: CCn1cc(C(=O)O)c(=O)c2cc(F)c(N3CCNCC3)cc21 [NORFLOXACIN]

- Activity [10]: is not an inhibitor [-]
Compound: CC1COc2c(N3CCN(C)CC3)c(F)cc3c(=O)c(C(=O)O)cn1c23 (centres undefined) [OFLOXACIN]

Compound: CCN1CCN(C(=O)N[C@@H](C(=O)N[C@@H]2C(=O)N3[C@@H]2SC(C)(C)[C@@H]3C(=O)O)c2ccccc2)C(=O)C1=O [PIPERACILLIN]
- Activity [11]: inhibitor [(at a rough estimate) 5 % of control]

- Activity [12]: is not an inhibitor [-]
Compound: [H]/N=C(/N)N[C@H]1[C@H](O)[C@@H](O)[C@H](O[C@@H]2O[C@@H](C)[C@](O)(C=O)[C@H]2O[C@@H]2O[C@@H](CO)[C@H](O)[C@@H](O)[C@@H]2NC)[C@@H](N/C(N)=N\[H])[C@@H]1O [STREPTOMYCIN]

Compound: CN[C@H](CC(C)C)C(=O)N[C@H]1C(=O)N[C@@H](CC(N)=O)C(=O)N[C@H]2C(=O)N[C@H]3C(=O)N[C@H](C(=O)N[C@H](C(=O)O)c4cc(O)cc(O)c4-c4cc3ccc4O)[C@H](O)c3ccc(c(Cl)c3)Oc3cc2cc(c3O[C@@H]2O[C@H](CO)[C@@H](O)[C@H](O)[C@H]2O[C@H]2C[C@](C)(N)[C@H](O)[C@H](C)O2)Oc2ccc(cc2Cl)[C@H]1O [VANCOMYCIN]
- Activity [13]: is not an inhibitor [-]

Compound: GENTAMICIN
- Activity [14]: is not an inhibitor [-]
